Experiment: Plasma pharmacokinetics of the parent compound after a single oral dose of prodrug
Type: in vivo
Conditions: single oral dose 10 mg/kg, fasted male Sprague Dawley rats; plasma analyzed for the parent compound; study duration 8 h
Method: Plasma pharmacokinetics of compounds was determined using three male Sprague Dawley rats following a single oral dose administration. All animals were placed in a rat metabolic cage, isolated, and fasted approximately 15 hours prior to dosing. Identifying markers were placed on each animal. Each animal was weighed prior to dose administration. Animals were administered orally with a solution formulation of test compound either in water or a combination of water/propylene glycol, at a dose of 10 mg/kg. Gavage needles were attached to syringes and filled with appropriate amount of test article to be dosed. Blood samples (approximately 500 μL) were collected from three rats at pre-dose (time 0), 0.5, 1, 2, 4, 8, 12 and 24 hr, respectively, depending on study duration. Samples were collected into labeled micro centrifuge tubes containing (heparin solution) as an anticoagulant. Plasma was immediately harvested from the blood by centrifugation at 14,000 rpm for 3 min at 4° C., and stored below −70° C. until bioanalysis. Individual plasma samples were analyzed for the parent compound, 3-[2-(4-carbamimidoyl-phenylcarbamoyl)-5-methoxy-4-vinyl-phenyl]-6-(cyclopropylmethyl-carbamoyl)-pyridine-2-carboxylic acid. As shown in Table-1, the test compounds yielded varying degrees of exposure to the parent compound. The test compounds generally provided for improved bioavailability of the parent compound as compared to dosing of the parent compound in aqueous solutions.

AUC0-last hour (area under the curve)	SMILES
B (B = 1,001-10,000 ng/mL)	C=Cc1cc(C(=O)Nc2ccc(C(=N)NC(=O)OCCCCCC)cc2)c(-c2ccc(C(=O)NCC3CC3)nc2C(=O)OCc2oc(=O)oc2C)cc1OC [Compound 35a, (5-methyl-2-oxo-1,3-dioxol-4-yl)methyl 6-((cyclopropylmethyl)carbamoyl)-3-(2-((4-(N-((hexyloxy)carbonyl)carbamimidoyl)phenyl)carbamoyl)-5-methoxy-4-vinylphenyl)picolinate]
C (C >10,000 ng/mL)	C=Cc1cc(C(=O)Nc2ccc(C(=N)NC(=O)OCCCCCC)cc2)c(-c2ccc(C(=O)NCC3CC3)nc2C(=O)OC(C)OC(=O)OC(C)C)cc1OC (stereo not drawn) [Compound 39a, 1-((isopropoxycarbonyl)oxy)ethyl 6-((cyclopropylmethyl)carbamoyl)-3-(2-((4-(N-((hexyloxy)carbonyl)carbamimidoyl)phenyl)carbamoyl)-5-methoxy-4-vinylphenyl)picolinate]
A (A = 0-1,000 ng/mL)	C=Cc1cc(C(=O)Nc2ccc(C(=N)NC(=O)OCc3oc(=O)oc3C)cc2)c(-c2ccc(C(=O)NCC3CC3)nc2C(=O)O)cc1OC [Compound 44b, 6-((cyclopropylmethyl)carbamoyl)-3-(5-methoxy-2-((4-(N-(((5-methyl-2-oxo-1,3-dioxol-4-yl)methoxy)carbonyl)carbamimidoyl)phenyl)carbamoyl)-4-vinylphenyl)picolinic acid]
B (B = 1,001-10,000 ng/mL)	C=Cc1cc(C(=O)Nc2ccc(C(=N)NC(=O)OC(C)OC(=O)C(C)C)cc2)c(-c2ccc(C(=O)NCC3CC3)nc2C(=O)OC(C)OC(=O)OC(C)C)cc1OC (stereo not drawn) [Compound 49a, 1-((isopropoxycarbonyl)oxy)ethyl 6-((cyclopropylmethyl)carbamoyl)-3-(2-((4-(N-((1-(isobutyryloxy)ethoxy)carbonyl)carbamimidoyl)phenyl)carbamoyl)-5-methoxy-4-vinylphenyl)picolinate]
B (B = 1,001-10,000 ng/mL)	C=Cc1cc(C(=O)Nc2ccc(C(=N)NC(=O)OCCCCCC)cc2)c(-c2ccc(C(=O)NCC3CC3)nc2C(=O)OCOC(=O)[C@@H](N)CC(C)C)cc1OC [Compound 50d, (S)-((2-amino-4-methylpentanoyl)oxy)methyl 6-((cyclopropylmethyl)carbamoyl)-3-(2-((4-(N-((hexyloxy)carbonyl)carbamimidoyl)phenyl)carbamoyl)-5-methoxy-4-vinylphenyl)picolinate]

The next lines start with the compound.

SMILES	AUC0-last hour (area under the curve)
C=Cc1cc(C(=O)Nc2ccc(C(=N)NC(=O)OCCCCCC)cc2)c(-c2ccc(C(=O)NCC3CC3)nc2C(=O)OC(C)OC(=O)C(C)C)cc1OC (stereo not drawn) [Compound 36b, 1-(isobutyryloxy)ethyl 6-((cyclopropylmethyl)carbamoyl)-3-(2-((4-(N-((hexyloxy)carbonyl)carbamimidoyl)phenyl)carbamoyl)-5-methoxy-4-vinylphenyl)picolinate]	C (C >10,000 ng/mL)
C=Cc1cc(C(=O)Nc2ccc(C(=N)N)cc2)c(-c2ccc(C(=O)NCC3CC3)nc2C(=O)OCOC(=O)CN)cc1OC.Cl [Compound 37e, (2-aminoacetoxy)methyl 3-(2-((4-carbamimidoylphenyl)carbamoyl)-5-methoxy-4-vinylphenyl)-6-((cyclopropylmethyl)carbamoyl)picolinate Hydrochloride]	B (B = 1,001-10,000 ng/mL)
C=Cc1cc(C(=O)Nc2ccc(C(=N)NC(=O)OCCCCCC)cc2)c(-c2ccc(C(=O)NCC3CC3)nc2C(=O)OC(C)OC(=O)OC(C)(C)C)cc1OC (stereo not drawn) [Compound 41a, 1-((tert-butoxycarbonyl)oxy)ethyl 6-((cyclopropylmethyl)carbamoyl)-3-(2-((4-(N-((hexyloxy)carbonyl)carbamimidoyl)phenyl)carbamoyl)-5-methoxy-4-vinylphenyl)picolinate]	B (B = 1,001-10,000 ng/mL)
C=Cc1cc(C(=O)Nc2ccc(C(=N)NC(=O)OCC)cc2)c(-c2ccc(C(=O)NCC3CC3)nc2C(=O)OC(C)OC(=O)C(C)C)cc1OC (stereo not drawn) [Compound 42a, 1-(isobutyryloxy)ethyl 6-((cyclopropylmethyl)carbamoyl)-3-(2-((4-(N-(ethoxycarbonyl)carbamimidoyl)phenyl)carbamoyl)-5-methoxy-4-vinylphenyl)picolinate]	C (C >10,000 ng/mL)
C=Cc1cc(C(=O)Nc2ccc(C(=N)NC(=O)OCC)cc2)c(-c2ccc(C(=O)NCC3CC3)nc2C(=O)OC(C)OC(=O)OC(C)C)cc1OC (stereo not drawn) [Compound 43a, 1-((isopropoxycarbonyl)oxy)ethyl 6-((cyclopropylmethyl)carbamoyl)-3-(2-((4-(N-(ethoxycarbonyl)carbamimidoyl)phenyl)carbamoyl)-5-methoxy-4-vinylphenyl)picolinate]	C (C >10,000 ng/mL)
C=Cc1cc(C(=O)Nc2ccc(C(=N)NC(=O)OCCCCCC)cc2)c(-c2ccc(C(=O)NCC3CC3)nc2C(=O)OCOC(=O)CN)cc1OC [Compound 45b, (2-aminoacetoxy)methyl 6-((cyclopropylmethyl)carbamoyl)-3-(2-((4-(N-((hexyloxy)carbonyl)carbamimidoyl)phenyl)carbamoyl)-5-methoxy-4-vinylphenyl)picolinate]	A (A = 0-1,000 ng/mL)
C=Cc1cc(C(=O)Nc2ccc(C(=N)NC(=O)OC(C)OC(C)=O)cc2)c(-c2ccc(C(=O)NCC3CC3)nc2C(=O)OC(C)OC(=O)OC(C)C)cc1OC (stereo not drawn) [Compound 47a, 1-((isopropoxycarbonyl)oxy)ethyl 3-(2-((4-(N-((1-acetoxyethoxy)carbonyl)carbamimidoyl)phenyl)carbamoyl)-5-methoxy-4-vinylphenyl)-6-((cyclopropylmethyl)carbamoyl) picolinate]	B (B = 1,001-10,000 ng/mL)
C=Cc1cc(C(=O)Nc2ccc(C(=N)NC(=O)OC(C)OC(C)=O)cc2)c(-c2ccc(C(=O)NCC3CC3)nc2C(=O)OC(C)OC(=O)C(C)C)cc1OC (stereo not drawn) [Compound 48b, 1-(isobutyryloxy)ethyl 3-(2-((4-(N-((1-acetoxyethoxy)carbonyl)carbamimidoyl)phenyl)carbamoyl)-5-methoxy-4-vinylphenyl)-6-((cyclopropylmethyl)carbamoyl)picolinate]	C (C >10,000 ng/mL)
C=Cc1cc(C(=O)Nc2ccc(C(=N)NO)cc2)c(-c2ccc(C(=O)NCC3CC3)nc2C(=O)OC(C)OC(=O)OC(C)C)cc1OC (stereo not drawn) [Compound 51b, 1-((isopropoxycarbonyl)oxy)ethyl 6-((cyclopropylmethyl)carbamoyl)-3-(2-((4-(N-hydroxycarbamimidoyl)phenyl)carbamoyl)-5-methoxy-4-vinylphenyl)picolinate]	A (A = 0-1,000 ng/mL)
C=Cc1cc(C(=O)Nc2ccc(-c3noc(=O)[nH]3)cc2)c(-c2ccc(C(=O)NCC3CC3)nc2C(=O)OC(C)OC(=O)OC(C)C)cc1OC (stereo not drawn) [Compound 52b, 1-((isopropoxycarbonyl)oxy)ethyl 6-((cyclopropylmethyl)carbamoyl)-3-(5-methoxy-2-((4-(5-oxo-4,5-dihydro-1,2,4-oxadiazol-3-yl)phenyl)carbamoyl)-4-vinylphenyl)picolinate]	A (A = 0-1,000 ng/mL)

Source: patent US20210198204A1, “PRODRUGS OF KALLIKREIN INHIBITORS” (BioCryst Pharmaceuticals, Inc., priority 2016, published 2021)
